Source: paper PMC6396940, “EhFP10: A FYVE family GEF interacts with myosin IB to regulate cytoskeletal dynamics during endocytosis in Entamoeba histolytica” (PLoS Pathogens, 2019)
Ends that are not written are not given here.

What was measured:
[1] = molecular target: EhMySH3 (SH3 domain of EhMyosin IB) (Entamoeba histolytica, UniProt C4LUC7); experiment: SPR binding of peptides to immobilized EhMySH3 (Autolab SPR); details: for relative SPR binding response: 0.8 mM of each peptide passed over immobilized EhMySH3, compared with the other peptides; for Kd: SPR kinetic analysis, peptide passed over immobilized EhMySH3, 10 mM HEPES, 150 mM NaCl, 3 mM EDTA, 0.05% NP-40, pH 7.4, 25°C, text: values could not be calculated accurately (peptides about 1000 Da), read-out: Binding affinity (KD, equilibrium dissociation constant)
Description: For binding studies of EhMySH3 with peptides, an Autolab SPR apparatus was used at the Advanced Instrumentation Research Facility, Jawaharlal Nehru University, New Delhi, India. Here, the 11-mercaptoundecanoic acid (11MUA) monolayer on the surface of the gold chip (Autolab) was activated by N-hydroxysuccinimide (NHS; 0.05 M)/[…] (EDC; 0.2 M). EhMySH3 protein (ligand) at a concentration of 37 μM was immobilized in channel 1 on the activated surface of the gold chip in 10 mM sodium acetate buffer (pH 5.0) up to 700 RU. During experimentation, channel 1 was used to pass the analytes (peptides) while channel 2 was used as a blank (the signals of the analyte with a ligand-free surface). After ligand immobilization, the surface was blocked with 100 mM ethanolamine at pH 8.5, followed by regeneration using 50 mM NaOH. The different peptides, each at various concentrations, were each injected at a rate of 20 μl/min across the sensor chip surface and the association kinetics and dissociation kinetics were monitored for 200 s and 100 s, respectively. All of the dilutions were done in running buffer, i.e., 10 mM HEPES, 150 mM NaCl, 3 mM EDTA, 0.05% NP-40 surfactant [pH 7.4].
All of the data were recorded at 25°C. For the evaluation of the kinetics, differential sensorgrams were analyzed using Autolab SPR Kinetic Evaluation software.

[2] = molecular target: c-terminal SH3 domain of EhMyosin IB (EhMySH3) (Entamoeba histolytica); experiment: SPR; Autolab SPR; EhMySH3 immobilised (1.175 ng/mm^3), cterEhFP10 at various concentrations passed over; association 400 s, dissociation 150 s; 25 C
[3] = molecular target: filamentous rabbit muscle actin (F-actin) (rabbit) (UniProt P68135); experiment: SPR; Autolab SPR; F-actin immobilised (0.67 ng/mm^3; 50 mM sodium acetate pH 4.1, 0.05 mM CaCl2, 0.05 mM ATP, 0.125 mM DTT), cterEhFP10 at various concentrations passed over; 25 C
[4] = molecular target: filamentous rabbit muscle actin (F-actin) (rabbit) (UniProt P68135)
[5] = molecular target: c-terminal SH3 domain of EhMyosin IB (EhMySH3) (Entamoeba histolytica); experiment: SPR; Autolab SPR; EhMySH3 immobilised on an 11-MUA gold chip (NHS/EDC, up to 700 RU), peptides injected at 20 ul/min; 10 mM HEPES, 150 mM NaCl, 3 mM EDTA, 0.05% NP-40, pH 7.4; 25 C

Question: “RPQPPTP [P4, class I peptide RPQPPTP from EhFP10]” was tested. Which “relative SPR binding response” value [1] did it give?
Answer: The value was “weakest binding”.

Question: How did the Kd [2] turn out when “c-terminal domain of EhFP10 (cterEhFP10) (domain or fragment)” was run?
Answer: The Kd was 0.2 µM.

Question: And the Kd [3]?
Answer: The Kd was 0.087 µM.

Question: And the thickness of actin bundles by TEM, filaments of 4 nm to 7 nm without and bundles with 10 uM to 20 uM cterEhFP10 [4]?
Answer: The thickness of actin bundles by TEM, filaments of 4 nm to 7 nm without and bundles with 10 uM to 20 uM cterEhFP10 was 120 nm.

Question: QHCPNVPII [P5] was tested. Which Kd [1] did it give?
Answer: Its Kd is 700 µM.

Question: How did the Kd [1] turn out when SLPPKPLR [P1] was run?
Answer: The Kd was 400 µM.

Question: How did the Kd [1] turn out when NIVPIQPPQ [P3] was run?
Answer: Its Kd is 1000 µM.

Question: For “KVAPPIPHR [P2, pseudo-symmetrical class I + II peptide … from EhFP10, co-crystallized with EhMySH3]”, which “relative SPR binding response” value [1] is on record?
Answer: Its value is “highest binding response”.

B1: peptide P3 from Rho family GTPase (peptide)
peptide: NIVPIQPPQ
modifications: not fully specified
Question: How did the Kd [5] turn out when B1 was run?
Answer: Its Kd is 1000 µM.

B2: peptide P5 from Rho family GTPase (peptide)
peptide: QHCPNVPII
modifications: not fully specified
Question: With B2 as the molecule, how does the Kd [5] read?
Answer: The Kd was 700 µM.
